Measurements: US11053204B2, “Pyrimidinyloxy benzene derivatives as herbicides” (FMC Corporation, priority 2015, dated 2021)

Tests used:
Format in all cases: in vivo
kochia (Kochia scoparia) [1] = assay: Test A preemergence, visual injury rating; settings: for Plant response rating, Kochia: 31 g ai/ha, 0 to 100 scale, 0 no effect, 100 complete control; for Kochia plant response rating: 0 to 100 scale (0 no effect, 100 complete control)
How it was run: (§1)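 Visual injury scored 0–100 (100 = complete control) against untreated controls about 10 days after treatment in a greenhouse. Test chemicals, formulated with surfactant in non-phytotoxic solvent, were sprayed on soil preemergence or on 2-10 cm, one- to two-leaf plants postemergence.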

[2] = system: Italian ryegrass (Lolium multiflorum); assay: Test A preemergence, visual injury rating; settings: for Plant response rating, Ryegrass, Italian: 31 g ai/ha, 0 to 100 scale, 0 no effect, 100 complete control; for Ryegrass, Italian plant response rating: 0 to 100 scale (0 no effect, 100 complete control)
How it was run: as §1

[3] = system: pigweed (Amaranthus retroflexus); assay: Test A preemergence, visual injury rating; settings: for Plant response rating, Pigweed: 31 g ai/ha, 0 to 100 scale, 0 no effect, 100 complete control; for Pigweed plant response rating: 0 to 100 scale (0 no effect, 100 complete control)
How it was run: as §1

[4] = system: ragweed (common ragweed, Ambrosia elatior); assay: Test A preemergence, visual injury rating; settings: for Plant response rating, Ragweed: 31 g ai/ha, 0 to 100 scale, 0 no effect, 100 complete control; for Ragweed plant response rating: 0 to 100 scale (0 no effect, 100 complete control)
How it was run: as §1

[5] = system: barnyardgrass (Echinochloa crus-galli); assay: Test A preemergence, visual injury rating; settings: for Plant response rating, Barnyardgrass: 31 g ai/ha, 0 to 100 scale, 0 no effect, 100 complete control; for Barnyardgrass plant response rating: 0 to 100 scale (0 no effect, 100 complete control)
How it was run: as §1

[6] = system: giant foxtail (Setaria faberii); assay: Test A preemergence, visual injury rating; settings: for Plant response rating, Foxtail, Giant: 31 g ai/ha, 0 to 100 scale, 0 no effect, 100 complete control; for Foxtail, Giant plant response rating: 0 to 100 scale (0 no effect, 100 complete control)
How it was run: as §1

rice (Oryza sativa) = assay: Test B flooded paddy test, plant response rating; settings: 250 g ai/ha; Flood; scale of 0 to 100 where 0 is no effect and 100 is complete control; 13 to 15 days
How it was run: (§2)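 Greenhouse pots flooded to 3 cm above soil at time of treatment received compound via the water, which stayed at that level.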

[7] = system: sedge, umbrella (small-flower umbrella sedge, Cyperus difformis); assay: Test B flooded paddy test, plant response rating; settings: 250 g ai/ha; Flood; scale of 0 to 100 where 0 is no effect and 100 is complete control; 13 to 15 days
How it was run: as §2

[8] = system: ducksalad (Heteranthera limosa); assay: Test B flooded paddy test, plant response rating; settings: 250 g ai/ha; Flood; scale of 0 to 100 where 0 is no effect and 100 is complete control; 13 to 15 days
How it was run: as §2

[9] = system: barnyardgrass (Echinochloa crus-galli); assay: Test B flooded paddy test, plant response rating; settings: 250 g ai/ha; Flood; scale of 0 to 100 where 0 is no effect and 100 is complete control; 13 to 15 days
How it was run: as §2

[10] = system: wheat (Triticum aestivum); assay: Test A postemergence, visual injury rating; settings: 0 is no effect, 100 is complete control; for Wheat plant response rating: 31 g ai/ha, 0 to 100 scale, approximately 10 days
How it was run: as §1

kochia (Kochia scoparia) [11] = assay: Test A postemergence, visual injury rating; settings: 0 is no effect, 100 is complete control; for Kochia plant response rating: 31 g ai/ha, 0 to 100 scale, approximately 10 days
How it was run: as §1

[12] = system: galium (catchweed bedstraw, Galium aparine); assay: Test A postemergence, visual injury rating; settings: 0 is no effect, 100 is complete control; for Galium plant response rating: 31 g ai/ha, 0 to 100 scale, approximately 10 days
How it was run: as §1

[13] = system: blackgrass (Alopecurus myosuroides); assay: Test A postemergence, visual injury rating; settings: 0 is no effect, 100 is complete control; for Blackgrass plant response rating: 31 g ai/ha, 0 to 100 scale, approximately 10 days
How it was run: as §1

corn (Zea mays) = assay: Test A postemergence, visual injury rating; settings: 0 is no effect, 100 is complete control; for Corn plant response rating: 31 g ai/ha, 0 to 100 scale, approximately 10 days
How it was run: as §1

[14] = system: Italian ryegrass (Lolium multiflorum); assay: Test A postemergence, visual injury rating; settings: 0 is no effect, 100 is complete control; for Ryegrass, Italian plant response rating: 31 g ai/ha, 0 to 100 scale, approximately 10 days
How it was run: as §1

[15] = system: pigweed (Amaranthus retroflexus); assay: Test A postemergence, visual injury rating; settings: 0 is no effect, 100 is complete control; for Pigweed plant response rating: 31 g ai/ha, 0 to 100 scale, approximately 10 days
How it was run: as §1

[16] = system: ragweed (common ragweed, Ambrosia elatior); assay: Test A postemergence, visual injury rating; settings: 0 is no effect, 100 is complete control; for Ragweed plant response rating: 31 g ai/ha, 0 to 100 scale, approximately 10 days
How it was run: as §1

[17] = system: barnyardgrass (Echinochloa crus-galli); assay: Test A postemergence, visual injury rating; settings: 0 is no effect, 100 is complete control; for Barnyardgrass plant response rating: 31 g ai/ha, 0 to 100 scale, approximately 10 days
How it was run: as §1

[18] = system: giant foxtail (Setaria faberii); assay: Test A postemergence, visual injury rating; settings: 0 is no effect, 100 is complete control; for Foxtail, Giant plant response rating: 31 g ai/ha, 0 to 100 scale, approximately 10 days
How it was run: as §1

Row | Structure (SMILES) | Kochia plant response rating (kochia (Kochia scoparia) [1]; 125 g ai/ha) | Ryegrass, Italian plant response rating ([2]; 125 g ai/ha) | Pigweed plant response rating ([3]; 125 g ai/ha) | Ragweed plant response rating ([4]; 125 g ai/ha) | Barnyardgrass plant response rating ([5]; 125 g ai/ha) | Foxtail, Giant plant response rating ([6]; 125 g ai/ha) | Plant response rating, Rice (rice (Oryza sativa)) | Plant response rating, Sedge, Umbrella [7] | Plant response rating, Ducksalad [8] | Plant response rating, Barnyardgrass [9] | Wheat plant response rating (0 to 100 scale) ([10]; 125 g ai/ha) | Kochia plant response rating (0 to 100 scale) (kochia (Kochia scoparia) [11]; 125 g ai/ha) | Galium plant response rating (0 to 100 scale) ([12]; 125 g ai/ha) | Blackgrass plant response rating (0 to 100 scale) ([13]; 125 g ai/ha) | Corn plant response rating (0 to 100 scale) (corn (Zea mays); 125 g ai/ha) | Ryegrass, Italian plant response rating (0 to 100 scale) ([14]; 125 g ai/ha) | Pigweed plant response rating (0 to 100 scale) ([15]; 125 g ai/ha) | Ragweed plant response rating (0 to 100 scale) ([16]; 125 g ai/ha) | Barnyardgrass plant response rating (0 to 100 scale) ([17]; 125 g ai/ha) | Foxtail, Giant plant response rating (0 to 100 scale) ([18]; 125 g ai/ha) | other results
1 | O=C(OCC(Cl)(Cl)Cl)c1c(Br)cccc1Oc1ncc(Cl)cn1 [Compound 45] | 0 | 0 | 70 | 0 | 0 | 10 | 0 | 0 | 0 | 0 | 0 | 50 | 100 | 0 | 20 | 0 | 100 | 10 | 20 | 20 | Plant response rating, Kochia (kochia (Kochia scoparia) [1]): 0; Plant response rating, Ryegrass, Italian [2]: 0; Plant response rating, Pigweed [3]: 0; Plant response rating, Ragweed [4]: 0; Plant response rating, Barnyardgrass [5]: 0; Plant response rating, Foxtail, Giant [6]: 0; Wheat plant response rating [10]: 0; Kochia plant response rating (kochia (Kochia scoparia) [11]): 20; Galium plant response rating [12]: 50; Blackgrass plant response rating [13]: 0; Corn plant response rating (corn (Zea mays)): 0; Ryegrass, Italian plant response rating [14]: 0; Pigweed plant response rating [15]: 80; Ragweed plant response rating [16]: 10; Barnyardgrass plant response rating [17]: 20; Foxtail, Giant plant response rating [18]: 20
2 | O=C(OCCCl)c1c(Br)cccc1Oc1ncc(Cl)cn1 [Compound 46] | 70 | 0 | 100 | 0 | 20 | 100 | 10 | 80 | 75 | 0 | 0 | 90 | 70 | 0 | 10 | 0 | 100 | 0 | 30 | 40 | Plant response rating, Kochia (kochia (Kochia scoparia) [1]): 0; Plant response rating, Ryegrass, Italian [2]: 0; Plant response rating, Pigweed [3]: 50; Plant response rating, Ragweed [4]: 0; Plant response rating, Barnyardgrass [5]: 0; Plant response rating, Foxtail, Giant [6]: 40; Wheat plant response rating [10]: 0; Kochia plant response rating (kochia (Kochia scoparia) [11]): 30; Galium plant response rating [12]: 50; Blackgrass plant response rating [13]: 0; Corn plant response rating (corn (Zea mays)): 0; Ryegrass, Italian plant response rating [14]: 0; Pigweed plant response rating [15]: 60; Ragweed plant response rating [16]: 0; Barnyardgrass plant response rating [17]: 0; Foxtail, Giant plant response rating [18]: 0
3 | O=C(OCC(F)(F)F)c1c(F)cccc1Oc1ncc(Br)cn1 [Compound 47] | 0 | 0 | 0 | 0 | 0 | 0 | 0 | 0 | 0 | 0 | 0 | 0 | 0 | 0 | 0 | 0 | 0 | 0 | 0 | 0 | Kochia plant response rating (kochia (Kochia scoparia) [1]; 500 g ai/ha): 0; Ryegrass, Italian plant response rating ([2]; 500 g ai/ha): 0; Pigweed plant response rating ([3]; 500 g ai/ha): 0; Ragweed plant response rating ([4]; 500 g ai/ha): 0; Barnyardgrass plant response rating ([5]; 500 g ai/ha): 0; Foxtail, Giant plant response rating ([6]; 500 g ai/ha): 0; Wheat plant response rating (0 to 100 scale) ([10]; 500 g ai/ha): 0; Kochia plant response rating (0 to 100 scale) (kochia (Kochia scoparia) [11]; 500 g ai/ha): 0; Galium plant response rating (0 to 100 scale) ([12]; 500 g ai/ha): 0; Blackgrass plant response rating (0 to 100 scale) ([13]; 500 g ai/ha): 0; Corn plant response rating (0 to 100 scale) (corn (Zea mays); 500 g ai/ha): 0; Ryegrass, Italian plant response rating (0 to 100 scale) ([14]; 500 g ai/ha): 0; Pigweed plant response rating (0 to 100 scale) ([15]; 500 g ai/ha): 0; Ragweed plant response rating (0 to 100 scale) ([16]; 500 g ai/ha): 0; Barnyardgrass plant response rating (0 to 100 scale) ([17]; 500 g ai/ha): 0; Foxtail, Giant plant response rating (0 to 100 scale) ([18]; 500 g ai/ha): 0
4 | O=C(OCC(F)(F)F)c1c(F)cccc1Oc1ncc(Cl)cn1 [Compound 48] | 0 | 0 | 0 | 0 | 0 | 0 | 20 | 0 | 0 | 20 | 0 | 0 | 0 | 0 | 0 | 0 | 20 | 0 | 0 | 0 | Kochia plant response rating (kochia (Kochia scoparia) [1]; 500 g ai/ha): 0; Ryegrass, Italian plant response rating ([2]; 500 g ai/ha): 0; Pigweed plant response rating ([3]; 500 g ai/ha): 0; Ragweed plant response rating ([4]; 500 g ai/ha): 0; Barnyardgrass plant response rating ([5]; 500 g ai/ha): 10; Foxtail, Giant plant response rating ([6]; 500 g ai/ha): 10; Wheat plant response rating (0 to 100 scale) ([10]; 500 g ai/ha): 0; Kochia plant response rating (0 to 100 scale) (kochia (Kochia scoparia) [11]; 500 g ai/ha): 0; Galium plant response rating (0 to 100 scale) ([12]; 500 g ai/ha): 10; Blackgrass plant response rating (0 to 100 scale) ([13]; 500 g ai/ha): 20; Corn plant response rating (0 to 100 scale) (corn (Zea mays); 500 g ai/ha): 0; Ryegrass, Italian plant response rating (0 to 100 scale) ([14]; 500 g ai/ha): 0; Pigweed plant response rating (0 to 100 scale) ([15]; 500 g ai/ha): 40; Ragweed plant response rating (0 to 100 scale) ([16]; 500 g ai/ha): 0; Barnyardgrass plant response rating (0 to 100 scale) ([17]; 500 g ai/ha): 30; Foxtail, Giant plant response rating (0 to 100 scale) ([18]; 500 g ai/ha): 20
5 | N#CCOC(=O)c1c(F)cccc1Oc1ncc(Cl)cn1 [Compound 49] | 0 | 0 | 0 | 0 | 0 | 0 | 20 | 0 | 0 | 20 | 0 | 0 | 0 | 0 | 0 | 0 | 0 | 0 | 0 | 0 | Kochia plant response rating (kochia (Kochia scoparia) [1]; 500 g ai/ha): 0; Ryegrass, Italian plant response rating ([2]; 500 g ai/ha): 0; Pigweed plant response rating ([3]; 500 g ai/ha): 0; Ragweed plant response rating ([4]; 500 g ai/ha): 0; Barnyardgrass plant response rating ([5]; 500 g ai/ha): 0; Foxtail, Giant plant response rating ([6]; 500 g ai/ha): 0; Wheat plant response rating (0 to 100 scale) ([10]; 500 g ai/ha): 0; Kochia plant response rating (0 to 100 scale) (kochia (Kochia scoparia) [11]; 500 g ai/ha): 0; Galium plant response rating (0 to 100 scale) ([12]; 500 g ai/ha): 0; Blackgrass plant response rating (0 to 100 scale) ([13]; 500 g ai/ha): 0; Corn plant response rating (0 to 100 scale) (corn (Zea mays); 500 g ai/ha): 0; Ryegrass, Italian plant response rating (0 to 100 scale) ([14]; 500 g ai/ha): 0; Pigweed plant response rating (0 to 100 scale) ([15]; 500 g ai/ha): 0; Ragweed plant response rating (0 to 100 scale) ([16]; 500 g ai/ha): 0; Barnyardgrass plant response rating (0 to 100 scale) ([17]; 500 g ai/ha): 0; Foxtail, Giant plant response rating (0 to 100 scale) ([18]; 500 g ai/ha): 0
